Test results from patent US20020120111A1, “Dwf5 mutants” (priority 2000, published 2002).

Key:
dwf5-1 plants = test: biochemical complementation of dwf5-1 plants with brassinolide and its biosynthetic intermediates (pedicel length); assay type: in vivo, Arabidopsis; conditions: for dwf5 pedicel length compared to a water-treated control: exogenous application, pedicel length measured 7 days after application (n=15), FIG. 2
Experimental: Standard procedures for plant growth, measurements on floral organs, scoring the number of seeds in a silique, biochemical complementation tests with Brassinosteroids, analysis of endogenous Brassinosteroids, and 13C-labeled mevalonic acid feeding experiments have been described previously (Choe, et al., 1999b). […] The ability of Brassinosteroids to rescue the phenotype of dwf5 was tested. The data presented in FIG. 2 show the biochemical complementation of dwf5-1 plants with brassinolide (BL) and its biosynthetic intermediates. […] The length of pedicels was measured 7 days after application (n=15). Data points represent the average with one standard deviation. Further, the BR biosynthetic intermediate 6-deoxocathasterone (6-DeoxoCT), and the synthetic compound 22-hydroxycampesterol (22-OHCR) induced pedicel growth up to 80% of wild-type length.

dwf5-1 seeds = test: seed germination on agar-solidified Murashige and Skoog media; assay type: in vivo, Arabidopsis; conditions: germination media supplemented with 10^−7 M brassinolide; without it <60% of dwf5-1 seeds germinated vs >90% of wild type
Text: The reduced germination of dwf5 seeds may be a secondary effect of retarded growth, or possibly DWF5 is involved in seed development and/or germination.

Structure (SMILES) | dwf5 pedicel length compared to a water-treated control (dwf5-1 plants) | correction of reduced germination of dwf5 seeds (dwf5-1 seeds) | rescue of the length of dwf5 pedicels to that of wild type (dwf5-1 plants; BL application)
CC(C)[C@H](C)C[C@H](O)[C@@H](C)[C@H]1CC[C@H]2[C@@H]3CC[C@H]4C[C@@H](O)CC[C@]4(C)[C@H]3CC[C@]12C [6-deoxocathasterone] | significant increases |  | 
CC(C)[C@H](C)C[C@H](O)[C@@H](C)[C@H]1CC[C@H]2[C@@H]3CC=C4C[C@@H](O)CC[C@]4(C)[C@H]3CC[C@]12C [22-hydroxycampesterol] | significant increases |  | 
CC(C)[C@H](C)[C@@H](O)[C@H](O)[C@@H](C)[C@H]1CC[C@H]2[C@@H]3COC(=O)[C@H]4C[C@H](O)[C@H](O)C[C@]4(C)[C@H]3CC[C@]12C [brassinolide] | significant increases | partially corrected | completely rescued
